Measurements published in US20140187596A1, “FATTY ACID AMIDE HYDROLASE INHIHIBITORS FOR TREATING PAIN” (ALLERGAN, INC., priority 2011, published 2014).

What was measured:
Type in all cases: biochemical
FP receptor = FP receptor (Homo sapiens, UniProt P43088); assay: PG receptor antagonism, FP; parameters: unit not given here; conditions: antagonist activity at FP receptor
DP receptor = molecular target: T1, DP receptor (Homo sapiens, UniProt Q13258); assay: PG receptor antagonism, DP; parameters: unit not given here; conditions: antagonist activity at DP receptor
T1 sequence (Q13258 1-359): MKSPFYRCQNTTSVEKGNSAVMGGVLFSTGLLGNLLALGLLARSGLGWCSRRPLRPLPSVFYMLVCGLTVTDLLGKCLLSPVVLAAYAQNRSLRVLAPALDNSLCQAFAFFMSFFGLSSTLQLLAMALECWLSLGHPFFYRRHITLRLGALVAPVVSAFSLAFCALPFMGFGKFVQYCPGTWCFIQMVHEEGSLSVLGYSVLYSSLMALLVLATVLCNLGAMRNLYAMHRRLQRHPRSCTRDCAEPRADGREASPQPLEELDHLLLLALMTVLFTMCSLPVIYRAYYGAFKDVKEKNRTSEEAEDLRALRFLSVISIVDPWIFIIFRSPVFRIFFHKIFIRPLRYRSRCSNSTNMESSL

EP1 receptor = molecular target: T2, EP1 receptor (Homo sapiens, UniProt P34995); assay: PG receptor antagonism, EP1; parameters: unit not given here; conditions: antagonist activity at EP1 receptor
T2 sequence (P34995 1-402): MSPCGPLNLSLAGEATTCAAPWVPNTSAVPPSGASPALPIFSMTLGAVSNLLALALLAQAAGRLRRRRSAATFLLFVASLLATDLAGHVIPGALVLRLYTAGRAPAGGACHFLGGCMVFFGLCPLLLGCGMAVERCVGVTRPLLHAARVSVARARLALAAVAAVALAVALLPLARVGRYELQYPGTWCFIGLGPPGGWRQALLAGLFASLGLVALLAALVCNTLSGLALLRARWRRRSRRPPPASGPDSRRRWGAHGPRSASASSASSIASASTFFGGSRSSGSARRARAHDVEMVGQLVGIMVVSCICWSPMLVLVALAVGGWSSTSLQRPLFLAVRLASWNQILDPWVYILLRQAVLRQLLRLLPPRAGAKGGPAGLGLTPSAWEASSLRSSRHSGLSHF

EP2 receptor = EP2 receptor (Homo sapiens, UniProt P43116); assay: PG receptor antagonism, EP2; conditions: antagonist activity at EP2 receptor
Sequence of EP2 receptor (P43116 whole entry): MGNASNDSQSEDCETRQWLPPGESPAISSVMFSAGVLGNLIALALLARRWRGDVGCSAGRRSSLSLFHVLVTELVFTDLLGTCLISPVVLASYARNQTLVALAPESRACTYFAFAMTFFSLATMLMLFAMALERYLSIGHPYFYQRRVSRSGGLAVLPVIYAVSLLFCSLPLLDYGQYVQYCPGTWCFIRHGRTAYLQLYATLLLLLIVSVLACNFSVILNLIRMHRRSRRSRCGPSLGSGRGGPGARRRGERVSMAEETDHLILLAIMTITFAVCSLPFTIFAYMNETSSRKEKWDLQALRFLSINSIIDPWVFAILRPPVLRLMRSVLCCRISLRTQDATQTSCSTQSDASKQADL

EP3 receptor = molecular target: T3, EP3 receptor (Homo sapiens, UniProt P43115); assay: PG receptor antagonism, EP3; parameters: unit not given here; conditions: antagonist activity at EP3 receptor
T3 sequence (P43115 1-390): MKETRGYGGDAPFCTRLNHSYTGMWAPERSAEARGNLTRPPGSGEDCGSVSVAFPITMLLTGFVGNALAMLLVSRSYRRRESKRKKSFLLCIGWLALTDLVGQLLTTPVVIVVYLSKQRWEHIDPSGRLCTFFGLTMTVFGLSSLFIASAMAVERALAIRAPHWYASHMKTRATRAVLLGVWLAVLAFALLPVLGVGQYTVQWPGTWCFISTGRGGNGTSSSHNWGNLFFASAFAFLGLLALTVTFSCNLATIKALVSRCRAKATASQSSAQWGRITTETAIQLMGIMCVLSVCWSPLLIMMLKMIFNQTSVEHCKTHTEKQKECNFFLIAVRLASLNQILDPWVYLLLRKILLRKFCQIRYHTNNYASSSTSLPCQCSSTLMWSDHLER

EP4 receptor = EP4 receptor (Homo sapiens, UniProt P35408); assay: PG receptor antagonism, EP4; parameters: unit not given here; conditions: antagonist activity at EP4 receptor
Sequence of EP4 receptor (P35408 whole entry): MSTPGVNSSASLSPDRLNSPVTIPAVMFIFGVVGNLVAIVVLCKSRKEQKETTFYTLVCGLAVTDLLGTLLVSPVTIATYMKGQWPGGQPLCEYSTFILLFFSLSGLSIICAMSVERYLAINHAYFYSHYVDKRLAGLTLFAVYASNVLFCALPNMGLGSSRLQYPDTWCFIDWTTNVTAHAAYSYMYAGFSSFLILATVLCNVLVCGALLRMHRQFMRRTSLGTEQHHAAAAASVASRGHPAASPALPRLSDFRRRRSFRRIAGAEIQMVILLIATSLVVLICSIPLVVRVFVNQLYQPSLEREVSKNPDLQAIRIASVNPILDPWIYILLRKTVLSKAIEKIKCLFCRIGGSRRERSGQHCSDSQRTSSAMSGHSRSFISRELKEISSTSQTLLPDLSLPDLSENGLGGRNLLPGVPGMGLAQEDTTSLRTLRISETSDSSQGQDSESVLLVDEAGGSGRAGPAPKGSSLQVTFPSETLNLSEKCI

IP receptor = IP receptor (Homo sapiens, UniProt P43119); assay: PG receptor antagonism, IP; parameters: unit not given here; conditions: antagonist activity at IP receptor
Sequence of IP receptor (P43119 whole entry): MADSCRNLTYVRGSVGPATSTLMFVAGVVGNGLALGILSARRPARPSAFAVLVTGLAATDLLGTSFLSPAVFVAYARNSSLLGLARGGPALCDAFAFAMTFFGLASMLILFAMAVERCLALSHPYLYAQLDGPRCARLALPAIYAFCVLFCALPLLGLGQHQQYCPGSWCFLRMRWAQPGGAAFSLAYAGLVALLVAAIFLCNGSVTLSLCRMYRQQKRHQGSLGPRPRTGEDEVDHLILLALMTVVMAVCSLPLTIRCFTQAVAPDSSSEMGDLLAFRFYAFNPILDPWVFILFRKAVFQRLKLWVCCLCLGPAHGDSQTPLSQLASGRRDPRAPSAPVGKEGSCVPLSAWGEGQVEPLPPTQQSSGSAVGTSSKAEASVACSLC

TP receptor = molecular target: T4, TP receptor (Homo sapiens, UniProt P21731); assay: PG receptor antagonism, TP; parameters: unit not given here; conditions: antagonist activity at TP receptor
T4 sequence (P21731 1-343): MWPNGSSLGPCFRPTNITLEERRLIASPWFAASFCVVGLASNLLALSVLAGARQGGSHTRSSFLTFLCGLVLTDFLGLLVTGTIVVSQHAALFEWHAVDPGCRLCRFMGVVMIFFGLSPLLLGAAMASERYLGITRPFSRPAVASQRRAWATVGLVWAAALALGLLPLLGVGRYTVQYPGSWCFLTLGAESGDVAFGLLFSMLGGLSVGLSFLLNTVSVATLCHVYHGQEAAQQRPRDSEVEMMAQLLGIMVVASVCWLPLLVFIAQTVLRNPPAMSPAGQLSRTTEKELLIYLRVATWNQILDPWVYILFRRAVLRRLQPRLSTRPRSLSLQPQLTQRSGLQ

Sequence of FP receptor (P43088 whole entry): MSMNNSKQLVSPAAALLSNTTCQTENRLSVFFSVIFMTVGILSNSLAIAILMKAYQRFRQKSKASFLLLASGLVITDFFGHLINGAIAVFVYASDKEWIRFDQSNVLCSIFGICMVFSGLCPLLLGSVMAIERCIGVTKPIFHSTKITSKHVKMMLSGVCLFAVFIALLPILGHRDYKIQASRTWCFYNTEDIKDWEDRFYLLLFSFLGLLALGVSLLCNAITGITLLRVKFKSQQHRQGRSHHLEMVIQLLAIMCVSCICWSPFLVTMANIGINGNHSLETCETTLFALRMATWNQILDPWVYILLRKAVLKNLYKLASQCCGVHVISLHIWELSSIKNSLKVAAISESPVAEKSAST

Row | Structure (SMILES) | FP (FP receptor) | DP (DP receptor) | EP1 (EP1 receptor) | EP2 (EP2 receptor) | EP3 (EP3 receptor) | EP4 (EP4 receptor) | IP (IP receptor) | TP (TP receptor)
1 | O=C(O)/C=C/c1ccc(F)cc1C[C@@H]1C(c2nc(C(=O)NCCCCC3CCCCC3)co2)C2CC[C@H]1O2 (stereo partly drawn) [Example 1, (E)-3-(2R-{3R-[4-(4-Cyclohexyl-butylcarbamoyl)-oxazol-2-yl]-7-oxa-bicyclo[2.2.1]hept-2-ylmethyl}-4-fluoro-phenyl)-acrylic acid] | 60 | 70 | 380 | – | 5500 | 60 | – | <1
2 | O=C(/C=C/c1ccc(F)cc1C[C@@H]1C(c2nc(C(=O)NCCCCC3CCCCC3)co2)C2CC[C@H]1O2)NS(=O)(=O)c1ccccc1 (stereo partly drawn) [Example 6, (E)-3R-[2R-[[3-[4-[[(4-cyclohexylbutyl)amino]carbonyl]-2-oxazolyl]-7-oxabicyclo[2.2.1]hept-2-yl]methyl]-4-fluoro-phenyl]-N-(benzenesulfonyl)acrylic amide] | 100 | 60 | 60 | – | 290 | 380 | 1500 | <1
3 | CCCCCCCCNC(=O)c1coc(C2C3CCC(O3)C2Cc2cc(F)ccc2/C=C/C(=O)NS(=O)(=O)CC)n1 (stereo not drawn) [Example 7] | 370 | 45 | 80 | – | 1900 | 200 | 3500 | <1

Results, then the molecule that gave them:

Row | FP (FP receptor) | DP (DP receptor) | EP1 (EP1 receptor) | EP2 (EP2 receptor) | EP3 (EP3 receptor) | EP4 (EP4 receptor) | IP (IP receptor) | TP (TP receptor) | Structure (SMILES)
4 | 50 | 10 | 40 | 4000 | 700 | 30 | 3300 | <1 | CCCCCCCCCNC(=O)c1coc(C2C3CCC(O3)C2Cc2cc(F)ccc2CCC(=O)NS(=O)(=O)C(F)(F)F)n1 (stereo not drawn) [Example 8, 2-{3-[5-Fluoro-2-(3-oxo-3-trifluoromethanesulfonylamino-propyl)-benzyl]-7-oxa-bicyclo[2.2.1]hept-2-yl}-oxazole-4-carboxylic acid nonylamide]
5 | 130 | 80 | 50 | 5300 | 2500 | 80 | – | <1 | O=C(/C=C/c1ccc(F)cc1C[C@@H]1C(c2nc(C(=O)NCCCCC3CCCCC3)co2)C2CC[C@H]1O2)NS(=O)(=O)CC(F)(F)F (stereo partly drawn) [Example 4, (E)-3R-[2R-[[3-[4-[[(4-cyclohexylbutyl)amino]carbonyl]-2-oxazolyl]-7-oxabicyclo[2.2.1]hept-2-yl]methyl]-4-fluoro-phenyl]-N-(2,2,2-trifluoroethanesulfonyl)acrylic amide]
6 | 90 | 30 | 65 | – | 790 | 100 | – | <1 | CS(=O)(=O)NC(=O)/C=C/c1ccc(F)cc1C[C@@H]1C(c2nc(C(=O)NCCCCC3CCCCC3)co2)C2CC[C@H]1O2 (stereo partly drawn) [Example 3, (E)-3R-[2R-[[3-[4-[[(4-cyclohexylbutyl)amino]carbonyl]-2-oxazolyl]-7-oxabicyclo[2.2.1]hept-2-yl]methyl]-4-fluoro-phenyl]-N-(methylsulfonyl)acrylic amide]
7 | 100 | 50 | 190 | – | 1600 | 140 | 1100 | <1 | CCS(=O)(=O)NC(=O)/C=C/c1ccc(F)cc1C[C@@H]1C(c2nc(C(=O)NCCCCC3CCCCC3)co2)C2CC[C@H]1O2 (stereo partly drawn) [Example 2, (E)-3R-[2R-[[3-[4-[[(4-cyclohexylbutyl)amino]carbonyl]-2-oxazolyl]-7-oxabicyclo[2.2.1]hept-2-yl]methyl]-4-fluoro-phenyl]-N-(ethylsulfonyl)acrylic amide]
